Columns and labels:
A2058 cells [1] = assay: A2058 s.c. melanoma xenograft in NOD/SCID mice; type: in vivo
Experimental: (§1) FIGS. 6A-N show combined MEK and proteasome inhibition exerts potent tumor-suppressive effects. (A) After treatments with 20 nM AZD6244, 100 nM Bortezomib, or both for 24 hr, viable cells were quantitated by CellTiter® Blue (mean±SD, n=6, ANOVA). (B and C) 1×10^6 A2058 cells were s.c. injected into NOD/SCID mice. After 7 days, mice were treated with DMSO, 5 mg/Kg AZD6244, 0.5 mg/Kg Bortezomib, or the combination via i.p. injection three times a week. Tumor volumes were measured using a caliper weekly (mean±SEM, ANOVA). Tumor growth curves were fitted to exponential growth models to derive tumor-doubling time (DT). Kaplan-Meier survival curve was plotted for each group (Log-rank test). (D) Proteins were detected by immunoblotting, 3 tumors per group. (E) Tumor lysates were used to quantitate AOs, 5 tumors per group (mean±SD, n=3, ANOVA). (F) Tumor lysates were used to seed Aβ1-42 peptides, 5 tumors per group (mean±SD, n=3, ANOVA). (G-H) Tumor sections were stained with CR, 5 tumors per group. Ten random fields were taken for each section. Scale bar: 50 μm. Total CR fluorescence in each field was quantitated using ImageJ and normalized against total nuclei (median, n=50, ANOVA). (I) Following CR staining, tumor sections were visualized under polarized light microscopy. Scale bar: 50 μm. (J) Following staining with AF-specific antibodies (OC), sections of tumors receiving combined treatment were further stained with CR. Scale bar: 50 μm. […] Body weights were monitored weekly (mean±SD, n=10, ANOVA). […]
FIG. 13A-J illustrates combined MEK and proteasome inhibition disrupts proteostasis and impedes in vivo tumor growth. […] Body weights were recorded before xenografting and at sacrifice. […] Quantitation of immunoblotting results in FIG. 6D (mean±SD, n=3, ANOVA). […] Lys48-specific protein ubiquitination and caspase 3 cleavage were measured by immunoblotting in 3 spleens per group.
(§2) A2058 cells were s.c. injected into the left flanks of 9-week-old female NOD.CB17-Prkdc/J (NOD/SCID) mice (The Jackson Laboratory). […] Tumor volumes were calculated following the formula 4/3πR^3. […]

A2058 cells [2] = assay: Experimental melanoma metastasis, i.v. luciferase-expressing A2058 cells in NOD/SCID mice; type: in vivo; conditions: n=10 per group
Experimental: as §1, with “Ten random fields were taken for each section. Scale bar: 50 μm.” left out, “ANOVA).” for “ANOVA). (I) Following CR staining, tumor sections were visualized under polarized light microscopy. Scale bar: 50 μm. (J) Following staining with AF-specific antibodies (OC), sections of tumors receiving combined treatment were further stained with CR. Scale bar: 50 μm.”
as §2

## CC(C)C[C@H](NC(=O)[C@H](Cc1ccccc1)NC(=O)c1cnccn1)B(O)O [Bortezomib, bortezomib]
A2058 cells [1]; 5 mg/Kg AZD6244, 0.5 mg/Kg Bortezomib or combination, i.p. three times a week
  growth of xenografted melanomas: no significant impacts
A2058 cells [1]; tumor immunoblotting
  HSF1 Ser326 phosphorylation and HSP expression in tumors (stress response): induced
A2058 cells [1]; tumor immunoblotting, 3 tumors per group
  ubiquitination in tumors: slightly elevated
A2058 cells [2]
  mice with luminescence detected by in vivo imaging: 40%

Reference: patent publication US20180369203A1, “METHODS OF TREATING CANCER BY ADMINISTERING A MEK INHIBITOR IN COMBINATION WITH A PROTEASOME INHIBITOR” (The Jackson Laboratory, priority 2015, published 2018)
